What was measured:
[1] = Effect of drugs on exosome number and miR-451 enrichment in exosomes; type: cell-based; details: treatment of exosome-producing cells
Experimental: A variety of cellular factors which may affect nucleic acid construct packaging in exosomes using methods as described herein were studied. Specifically, effects of over-expression of mutant Ras, mutant Myc, wild-type Ago2, and siRNA depletion of Translin were studied. […] The effect of several drugs was also tested, such as mTOR inhibitors and lysosomal/autophagy inhibitors which are clinically used. […] Lysosomal/autophagy inhibitors tested include Bafilomycin A1, concanamycin, and NAADP-AM.

[2] = tested on: mouse embryonic fibroblast cells; assay: Exosomal enrichment of synthetic RNA constructs mimicking pre-miR-451 processing stages (RT-qPCR); type: cell-based; details: synthetic RNA transfected, FIG. 9(E)
Experimental: Synthetic RNA constructs mimicking WT pre-miR-451 at various processing stages were tested for exosomal enrichment. Constructs were transfected into cells, and exosome enrichment was measured by RT-qPCR after exosome purification by differential centrifugation. miR-451 derived mature siRNA was normalized to levels of let-7a and miR-16 in exosomes vs. cells. Constructs tested include WT pre-mIR-451 construct following Drosha processing (A), an Ago2-cleaved version of the construct (B), and a mature 22 nt miR-451 (post exonuclease activity, having a 5′ targeting portion including a portion of the loop region) (C). For comparison, a standard 21 nt dsRNA siRNA with 3′ overhangs (D) was also tested. Exosomal enrichment results are shown in (E);
Constructs were accordingly designed which mimic WT pre-miR-451 at various processing stages, and tested for exosomal enrichment. Constructs tested are graphically depicted in FIG. 9. […]
RNAs corresponding to 42 nt pre-miR-451 with an inserted GFP siRNA, or the same construct up to the Ago2 cleavage site, or the fully mature form of miR-451 produced GFP siRNA (single-stranded 22 nt RNA), or double-stranded GFP siRNA with 2 nt 3′ overhangs were synthesized by IDT. […] Two days later exosomes were purified and levels of mature GFP siRNA in exosomes was quantified by RT-qPCR.

MEF = assay: Exosomal enrichment of endogenous miR-451, RT-qPCR in exosomes vs exosome-producing cells; type: cell-based, mouse
Experimental: (§1) Firstly, enrichment of endogenously expressed miR-451 in exosomes was compared to other endogenously expressed microRNAs (miR-16, let-7a).
(§2) Exosomes were enriched by differential centrifugation as previously described (Thery, 2006, Curr Protoc Cell Biol, Chapter 3, Unit 3 22). Briefly, MEF or MDA-MB-231 cells were cultured in media containing FBS depleted of exosomes by centrifugation at 100 000 g for 16 h (Thery, 2006, Curr Protoc Cell Biol, Chapter 3, Unit 3 22). To purify exosomes supernatant from cell cultures was centrifuged at 400 g (7 min), 2000 g (10 min) and 10 000 g (30 min, SW32 rotor). At each step the supernatant was recovered. After centrifugation at 100 000 g (1 h 10 min, SW32 rotor) the supernatant was removed and the pellet was resuspended. The pellet was washed in PBS by a final centrifugation at 100 000 g (20 min, TLA100.3 rotor). The exosome-enriched pellet was re-suspended in PBS for further analyses.
RT-qPCR was performed with the MiScript II Reverse Transcriptase system (Qiagen) and GoTaq® qPCR Master Mix (Promega A6002) using primers allowing amplification of the DNA produced in the reverse transcriptase step. […]
RT-qPCR was performed with (Promega A6002) or Quantitect qPCR master mix (Qiagen) using primers allowing amplification of the DNA produced in the reverse transcriptase step using the following primers mir-451: […] […]

BV2 = assay: as above; type: cell-based, mouse; details: exosome-depleted or serum-free media
Experimental: as §1
(§3) RT-qPCR was performed with the MiScript II Reverse Transcriptase system (Qiagen) and GoTaq® qPCR Master Mix (Promega A6002) using primers allowing amplification of the DNA produced in the reverse transcriptase step. Results were normalized to the ubiquitous miRNA let-7a and miR-16.
(§4) RT-qPCR was performed with (Promega A6002) or Quantitect qPCR master mix (Qiagen) using primers allowing amplification of the DNA produced in the reverse transcriptase step using the following primers mir-451: […] (SEQ ID NO: 14), let-7a: […] (SEQ ID NO: 15), mir-16: […] (SEQ ID NO: 16).

C8D1A = assay: as above; type: cell-based, mouse; details: exosome-depleted or serum-free media
Experimental: as §1, §3, §4

C8D30 = assay: as above; type: cell-based, mouse; details: exosome-depleted or serum-free media
Experimental: as §1, §3, §4

C8S = assay: as above; type: cell-based, mouse; details: exosome-depleted or serum-free media
Experimental: as §1, §3, §4

JAWSII = assay: as above; type: cell-based, mouse; details: exosome-depleted or serum-free media
Experimental: as §1, §3, §4

MN1 = assay: as above; type: cell-based, mouse; details: exosome-depleted or serum-free media
Experimental: as §1, §3, §4

Macrophage = assay: as above; type: cell-based, mouse; details: exosome-depleted or serum-free media
Experimental: as §1, §3, §4

N2A = assay: as above; type: cell-based, mouse; details: exosome-depleted or serum-free media
Experimental: as §1, §3, §4

NSC34 = assay: as above; type: cell-based, mouse; details: exosome-depleted or serum-free media
Experimental: as §1, §3, §4

MDA-MB-231 = assay: Exosomal enrichment of endogenous miRNAs, RT-qPCR in exosomes vs exosome-producing cells; type: cell-based, human
Description: Exosomes from breast epithelial cell line (MDA-MB-231) or mouse embryonic fibroblasts (MEF) were purified and multiple techniques were used to confirm the identity and purity of exosome preparations (see FIG. 1A-D). Dynamic light scattering and Nanosight particle tracking was used to ensure that exosomes purified were highly pure populations of particles with diameter of 100 nm, as expected for exosomes. […] RNA was isolated from these exosomes and the cells that produced them, and RT-qPCR was used to characterize the relative abundance of miRNAs.
as §1, §2, §3

MSC Line = assay: Exosomal enrichment of endogenous miR-451, RT-qPCR in exosomes vs exosome-producing cells; type: cell-based; details: exosome-depleted or serum-free media
Experimental: as §1, §3, §4

ESC = assay: as above; type: cell-based, human
Experimental: as §1, §3, §4

Primary MSC = assay: as above; type: cell-based, human; details: exosome-depleted or serum-free media
Experimental: as §1, §3, §4

[3] = tested on: exosomes from multiple cell types and sources; details: plasma, serum, mast cells, glioblastoma, B cells, cardiac progenitor cells, MSC; cited from earlier work
[4] = tested on: Ago2 knockout mouse embryonic fibroblasts; assay: Effect of Ago2 on exosomal enrichment of siRNA from pre-miR-451 structural mimic (qRT-PCR); type: cell-based; details: compared to wild-type cells or Ago2 knockout cells rescued with wild-type or catalytically dead Ago2, FIG. 10
Experimental: (§5) In these experiments, plasmids including siRNA sequences targeting GFP or TctR integrated in a pre-miR-451 structural mimic were transfected into cells, and the levels of GFP or TetR siRNA in exosomes vs cells (vs. let-7a and miR-16 in exosomes/cells) was measured by qRT-PCR two to three days later. Enrichment of miR-451 derived sequences in exosomes was normalized to 1 for wild-type exosomes.
Testing of the effect of Ago2 on enrichment of siRNA-containing constructs in exosomes using pre-miR-451 structural mimics as described herein was also performed.
as §5, with “TetR” for “TctR”

MDA-MB-231 cells = assay: Exosomal enrichment of miRNA expressed from transfected pre-miR-451 structural mimic plasmids (RT-qPCR); type: cell-based, human; details: FIG. 3B
Experimental: (§6) (C) The ratio of endogenous miRNAs (let-7a, miR-106, miR-155) was measured in exosomes and exosome-producing cells (MEF, mouse embryonic fibroblasts) by RT-qPCR. y-axis is log 10. miR-451 is not endogenously expressed in these cells.
(§7) Plasmids expressing pre-miR-451, or pre-miR-451 structural mimics including the sequences of other miRNA, were transfected into the two cell types. Expressing miR-106 or miR-155 in the pre-miR-451 structural mimic caused them to be enriched up to 39-fold in exosomes produced by either MEF or breast cancer cells (see FIG. 3B,D). […] In MEF cells, endogenous miR-451 was undetectable in either cells or exosomes (see FIG. 3C).
(§8) Cells were transfected with plasmids using Lipofectamine 2000 according to the manufacturer's instructions. After four hours cells were washed in PBS and incubated with DMEM containing 10% FBS depleted of exosomes by ultracentrifugation according to Thery et al. (2006). After 24 h media was harvested and exosomes were purified by differential ultracentrifugation. RNA was purified from exosomes and exosome-producing cells using Trizol according to the manufacturer's instructions.
Exosomes were enriched by differential centrifugation as previously described (Thery, 2006, Curr Protoc Cell Biol, Chapter 3, Unit 3 22). […]

MEF cells = assay: as above; type: cell-based, mouse; details: for Effect of pre-miR-451 backbone on levels of inserted miRNA in cells: MEF cells transfected with plasmids, FIG. 4
Experimental: as §6
MEF cells were transfected with pre-miR-451 expressing plasmids (“technology”) containing miR-199, miR-155 or miR-106, and exosomes were purified and RT-qPCR was performed on exosomes and cells.
as §7, §8
as §2, with “The exosome-enriched pellet was re-suspended in PBS for further analyses.” left out

CO/C1=C\C(C)=C\[C@@H](C)[C@@H](O)[C@@H](C)C/C(C)=C/C=C/[C@H](OC)[C@@H]([C@@H](C)[C@@H](O)[C@H](C)[C@@]2(O)C[C@@H](O)[C@H](C)[C@@H](C(C)C)O2)OC1=O [Bafilomycin A1]
Effect on exosome number [1]: increased exosome number

C/C=C/[C@H]1O[C@@](O)([C@@H](C)[C@H](O)[C@H](C)[C@H]2OC(=O)/C(OC)=C/C(C)=C/[C@@H](C)[C@@H](O)[C@@H](CC)[C@@H](O)[C@H](C)C/C(C)=C/C=C/[C@@H]2OC)C[C@@H](O)[C@@H]1C [concanamycin]
Effect on exosome number [1]: increased exosome number

AUGAACUUCAGGGUCAGCUUGC (listed as RNA, chemistry not fully specified) [fully mature ss, fully mature form of miR-451 produced GFP siRNA, single-stranded 22 nt RNA]
Exosomal enrichment among constructs mimicking processing stages (normalized to let-7a and miR-16, exosomes vs. cells) [2]: most strongly exosome-enriched construct | Exosomal enrichment compared with standard dsRNA siRNA with 3′ overhangs [2]: higher than dsRNA

NAADP-AM
Effect on exosome number [1]: increased exosome number

miR-451: endogenous miRNA strongly enriched in exosomes; generated from pre-miR-451 by Ago2 cleavage, Dicer-independent (AAACCGUUACCAUUACUGAGUUU; expressed or natural sequence; listed as Homo Sapiens)
Endogenous miR-451 in cells or exosomes (MEF; MEF cells, FIG. 3C): undetectable | Enrichment of miR-451 in exosomes/cell (vs. miR-16 and let-7a) (MEF; MEF, exosome-depleted or serum-free media): 68800 | Enrichment of miR-451 in exosomes/cell (vs. miR-16 and let-7a) (BV2): 1887 | Enrichment of miR-451 in exosomes/cell (vs. miR-16 and let-7a) (C8D1A): 40 | Enrichment of miR-451 in exosomes/cell (vs. miR-16 and let-7a) (C8D30): 22 | Enrichment of miR-451 in exosomes/cell (vs. miR-16 and let-7a) (C8S): 383 | Enrichment of miR-451 in exosomes/cell (vs. miR-16 and let-7a) (JAWSII): 23642 | Enrichment of miR-451 in exosomes/cell (vs. miR-16 and let-7a) (MN1): 44 | Enrichment of miR-451 in exosomes/cell (vs. miR-16 and let-7a) (Macrophage): 1280 | Enrichment of miR-451 in exosomes/cell (vs. miR-16 and let-7a) (N2A): 4119 | Enrichment of miR-451 in exosomes/cell (vs. miR-16 and let-7a) (NSC34): 73 | Ratio of endogenous miRNA in exosomes and exosome-producing cells (in words) (MDA-MB-231; MDA-MB-231, FIG. 3A): highly enriched in exosomes | Enrichment of miR-451 in exosomes/cell (vs. miR-16 and let-7a) (MDA-MB-231; MDA, exosome-depleted or serum-free media): 5600 | Enrichment of miR-451 in exosomes compared to its levels in cells, compared to other miRNA (MDA-MB-231; endogenous miRNA, MDA-MB-231, FIG. 3A): up to 308 fold | Enrichment of miR-451 in exosomes/cell (vs. miR-16 and let-7a) (MSC Line): 5293 | Enrichment of miR-451 in exosomes/cell (vs. miR-16 and let-7a) (ESC; ESC, exosome-depleted or serum-free media): 3 | Enrichment of miR-451 in exosomes (in words) (ESC; human embryonic stem cells, H9 line, FIG. 7): strongly enriched | Enrichment of miR-451 in exosomes/cell (vs. miR-16 and let-7a) (Primary MSC): 702 | Enrichment of miR-451 in exosomes in several studies [3]: 10-10000 fold

B1: siRNA targeting TetR inserted in a pre-miR-451 structural mimic: pre-miR-451 structural mimic targeting TetR, SEQ ID NO: 20 (nucleic acid)
chain: CUUGGGAAUGGCAAGGUCUUGAUCUUCCAAUACGCAACCGUAUUGGAAGAUCAAGAUCUUGCUAUACCCAGA
modifications: expressed or natural sequence
Enrichment of siRNA in exosomes in Ago2 knockout cells [4]: still enriched in exosomes

B2: miR-106 in the pre-miR-451 structural mimic: pre-miR-451 structural mimic comprising the miR-106 targeting sequence, plasmid-expressed, SEQ ID NO: 7 (nucleic acid)
chain: CUUGGGAAUGGCAAGGAAAAGUGCUUACAGUGCAGGUAUGCACUGUAAGCACUUUCUCUUGCUAUACCCAGA
Enrichment in exosomes of miRNA inserted in the pre-miR-451 backbone (in words) (MDA-MB-231 cells): comparable with miR-451 | Effect of pre-miR-451 backbone on levels of inserted miRNA in cells (MEF cells): neglible effects | Enrichment in exosomes of miRNA inserted in the pre-miR-451 backbone (in words) (MEF cells; MEF cells, FIG. 3D): highly enriched

B3: miR-199 in the pre-miR-451 structural mimic: pre-miR-451 structural mimic comprising the miR-199 targeting sequence, plasmid-expressed, SEQ ID NO: 8 (nucleic acid)
chain: CUUGGGAAUGGCAAGGACAGUAGUCUGCACAUUGGUUAAUGUGCAGACUACUGUCUCUUGCUAUACCCAGA
Effect of pre-miR-451 backbone on levels of inserted miRNA in cells (MEF cells): neglible effects

Reference: patent US10851372B2, “Exosome packaging of nucleic acids” (University of Ottawa, priority 2015, dated 2020)
